Measured values: the NIST ThermoML archive (doi:10.1016/j.jct.2016.10.023)
± gives the expanded uncertainty stated by the source.

Experiment: xn = mol fraction of the nth substance listed
Settings: Constant-volume piezometry

For `CCCCC` [pentane] + CCCO, the mass density (563.15 K, 15195 kPa, Fluid (supercritical or subcritical phases), x1 = 0.9) was 353.41 ± 1.8 kg/m3, the mass density (563.15 K, 15944 kPa, Fluid (supercritical or subcritical phases), x1 = 0.8) was 361.2 ± 1.8 kg/m3 and the mass density (563.15 K, 20883 kPa, Fluid (supercritical or subcritical phases), x1 = 0.2) was 469.34 ± 2.4 kg/m3. For the same molecule, the mass density (563.15 K, 22608 kPa, Fluid (supercritical or subcritical phases), x1 = 0.9) was 406.44 ± 2 kg/m3, the mass density (563.15 K, 23762 kPa, Fluid (supercritical or subcritical phases), x1 = 0.8) was 417.33 ± 2.1 kg/m3 and the mass density (563.15 K, 29039 kPa, Fluid (supercritical or subcritical phases), x1 = 0.2) was 508.42 ± 2.6 kg/m3. It also gave a mass density (563.15 K, 36842 kPa, Fluid (supercritical or subcritical phases), x1 = 0.8) of 465.69 ± 2.4 kg/m3, a mass density (563.15 K, 41493 kPa, Fluid (supercritical or subcritical phases), x1 = 0.2) of 545.72 ± 2.8 kg/m3 and a mass density (573.15 K, 1455 kPa, Gas, x1 = 0.8) of 22.47 ± 0.07 kg/m3. The mass density (573.15 K, 1761 kPa, Gas, x1 = 0.2) was 24.87 ± 0.08 kg/m3, the mass density (573.15 K, 2249 kPa, Gas, x1 = 0.8) was 36.6 ± 0.11 kg/m3 and the mass density (573.15 K, 3350 kPa, Gas, x1 = 0.8) was 58.27 ± 0.18 kg/m3. For the same molecule, the mass density (573.15 K, 3774 kPa, Gas, x1 = 0.2) was 52.88 ± 0.16 kg/m3, the mass density (573.15 K, 4034 kPa, Fluid (supercritical or subcritical phases), x1 = 0.8) was 73.62 ± 0.37 kg/m3 and the mass density (573.15 K, 4329 kPa, Fluid (supercritical or subcritical phases), x1 = 0.9) was 83.18 ± 0.42 kg/m3. It also gave a mass density (573.15 K, 5099 kPa, Fluid (supercritical or subcritical phases), x1 = 0.2) of 91.19 ± 0.46 kg/m3, a mass density (573.15 K, 5320 kPa, Fluid (supercritical or subcritical phases), x1 = 0.8) of 106.15 ± 0.54 kg/m3 and a mass density (573.15 K, 5748 kPa, Fluid (supercritical or subcritical phases), x1 = 0.9) of 123.05 ± 0.62 kg/m3. For the same molecule, the mass density (573.15 K, 5856 kPa, Fluid (supercritical or subcritical phases), x1 = 0.2) was 114.08 ± 0.58 kg/m3, the mass density (573.15 K, 6139 kPa, Fluid (supercritical or subcritical phases), x1 = 0.9) was 133.8 ± 0.68 kg/m3 and the mass density (573.15 K, 6637 kPa, Fluid (supercritical or subcritical phases), x1 = 0.8) was 139.97 ± 0.71 kg/m3. For the same molecule, the mass density (573.15 K, 6909 kPa, Fluid (supercritical or subcritical phases), x1 = 0.2) was 149.98 ± 0.76 kg/m3, the mass density (573.15 K, 7024 kPa, Fluid (supercritical or subcritical phases), x1 = 0.9) was 163.56 ± 0.83 kg/m3 and the mass density (573.15 K, 7062 kPa, Fluid (supercritical or subcritical phases), x1 = 0.8) was 155.67 ± 0.79 kg/m3. It also gave a mass density (573.15 K, 7474 kPa, Fluid (supercritical or subcritical phases), x1 = 0.8) of 169.37 ± 0.86 kg/m3, a mass density (573.15 K, 7491 kPa, Fluid (supercritical or subcritical phases), x1 = 0.2) of 175.18 ± 0.9 kg/m3 and a mass density (573.15 K, 7658 kPa, Fluid (supercritical or subcritical phases), x1 = 0.8) of 175.6 ± 0.89 kg/m3. It also gave a mass density (573.15 K, 7755 kPa, Fluid (supercritical or subcritical phases), x1 = 0.2) of 189.17 ± 0.97 kg/m3, a mass density (573.15 K, 7776 kPa, Fluid (supercritical or subcritical phases), x1 = 0.8) of 180.39 ± 0.91 kg/m3 and a mass density (573.15 K, 7805 kPa, Fluid (supercritical or subcritical phases), x1 = 0.9) of 188.99 ± 0.96 kg/m3. For the same molecule, the mass density (573.15 K, 8168 kPa, Fluid (supercritical or subcritical phases), x1 = 0.8) was 192.69 ± 0.98 kg/m3, the mass density (573.15 K, 8184 kPa, Fluid (supercritical or subcritical phases), x1 = 0.9) was 201.88 ± 1 kg/m3 and the mass density (573.15 K, 8351 kPa, Fluid (supercritical or subcritical phases), x1 = 0.2) was 219.55 ± 1.1 kg/m3. The mass density (573.15 K, 8805 kPa, Fluid (supercritical or subcritical phases), x1 = 0.9) was 220.14 ± 1.1 kg/m3, the mass density (573.15 K, 8815 kPa, Fluid (supercritical or subcritical phases), x1 = 0.8) was 213.33 ± 1.1 kg/m3 and the mass density (573.15 K, 8859 kPa, Fluid (supercritical or subcritical phases), x1 = 0.2) was 244.86 ± 1.2 kg/m3. The mass density (573.15 K, 9002 kPa, Fluid (supercritical or subcritical phases), x1 = 0.8) was 219.08 ± 1.1 kg/m3, the mass density (573.15 K, 9138 kPa, Fluid (supercritical or subcritical phases), x1 = 0.2) was 258.55 ± 1.3 kg/m3 and the mass density (573.15 K, 9198 kPa, Fluid (supercritical or subcritical phases), x1 = 0.9) was 232.49 ± 1.2 kg/m3. The mass density (573.15 K, 9211 kPa, Fluid (supercritical or subcritical phases), x1 = 0.2) was 262.25 ± 1.3 kg/m3, the mass density (573.15 K, 9316 kPa, Fluid (supercritical or subcritical phases), x1 = 0.9) was 235.95 ± 1.2 kg/m3 and the mass density (573.15 K, 9432 kPa, Fluid (supercritical or subcritical phases), x1 = 0.2) was 271.68 ± 1.4 kg/m3. For the same molecule, the mass density (573.15 K, 9453 kPa, Fluid (supercritical or subcritical phases), x1 = 0.9) was 240.34 ± 1.2 kg/m3, the mass density (573.15 K, 9462 kPa, Fluid (supercritical or subcritical phases), x1 = 0.8) was 234.13 ± 1.2 kg/m3 and the mass density (573.15 K, 9562 kPa, Fluid (supercritical or subcritical phases), x1 = 0.9) was 243.64 ± 1.2 kg/m3. The mass density (573.15 K, 9806 kPa, Fluid (supercritical or subcritical phases), x1 = 0.8) was 244.74 ± 1.2 kg/m3, the mass density (573.15 K, 9864 kPa, Fluid (supercritical or subcritical phases), x1 = 0.2) was 289.81 ± 1.5 kg/m3 and the mass density (573.15 K, 10272 kPa, Fluid (supercritical or subcritical phases), x1 = 0.2) was 306.05 ± 1.6 kg/m3. The mass density (573.15 K, 10324 kPa, Fluid (supercritical or subcritical phases), x1 = 0.8) was 257.93 ± 1.3 kg/m3, the mass density (573.15 K, 10392 kPa, Fluid (supercritical or subcritical phases), x1 = 0.2) was 310.27 ± 1.6 kg/m3 and the mass density (573.15 K, 10713 kPa, Fluid (supercritical or subcritical phases), x1 = 0.2) was 317.97 ± 1.6 kg/m3. For the same molecule, the mass density (573.15 K, 10865 kPa, Fluid (supercritical or subcritical phases), x1 = 0.8) was 271.86 ± 1.4 kg/m3, the mass density (573.15 K, 11108 kPa, Fluid (supercritical or subcritical phases), x1 = 0.9) was 281.31 ± 1.4 kg/m3 and the mass density (573.15 K, 11531 kPa, Fluid (supercritical or subcritical phases), x1 = 0.2) was 340.39 ± 1.7 kg/m3. It also gave a mass density (573.15 K, 11654 kPa, Fluid (supercritical or subcritical phases), x1 = 0.2) of 343.17 ± 1.7 kg/m3, a mass density (573.15 K, 11678 kPa, Fluid (supercritical or subcritical phases), x1 = 0.8) of 287.66 ± 1.4 kg/m3 and a mass density (573.15 K, 12021 kPa, Fluid (supercritical or subcritical phases), x1 = 0.9) of 300.93 ± 1.5 kg/m3. The mass density (573.15 K, 12217 kPa, Fluid (supercritical or subcritical phases), x1 = 0.8) was 298.45 ± 1.5 kg/m3, the mass density (573.15 K, 12707 kPa, Fluid (supercritical or subcritical phases), x1 = 0.9) was 311.54 ± 1.6 kg/m3 and the mass density (573.15 K, 13246 kPa, Fluid (supercritical or subcritical phases), x1 = 0.8) was 314.57 ± 1.6 kg/m3. It also gave a mass density (573.15 K, 13392 kPa, Fluid (supercritical or subcritical phases), x1 = 0.2) of 377.65 ± 1.9 kg/m3, a mass density (573.15 K, 13687 kPa, Fluid (supercritical or subcritical phases), x1 = 0.2) of 382.44 ± 1.9 kg/m3 and a mass density (573.15 K, 14239 kPa, Fluid (supercritical or subcritical phases), x1 = 0.9) of 333.19 ± 1.7 kg/m3. It also gave a mass density (573.15 K, 14284 kPa, Fluid (supercritical or subcritical phases), x1 = 0.2) of 390.25 ± 2 kg/m3, a mass density (573.15 K, 14505 kPa, Fluid (supercritical or subcritical phases), x1 = 0.8) of 333.01 ± 1.7 kg/m3 and a mass density (573.15 K, 15392 kPa, Fluid (supercritical or subcritical phases), x1 = 0.8) of 344.5 ± 1.7 kg/m3. For the same molecule, the mass density (573.15 K, 16409 kPa, Fluid (supercritical or subcritical phases), x1 = 0.9) was 353.22 ± 1.8 kg/m3, the mass density (573.15 K, 16662 kPa, Fluid (supercritical or subcritical phases), x1 = 0.2) was 417.59 ± 2.1 kg/m3 and the mass density (573.15 K, 17250 kPa, Fluid (supercritical or subcritical phases), x1 = 0.8) was 361.01 ± 1.8 kg/m3. The mass density (573.15 K, 23293 kPa, Fluid (supercritical or subcritical phases), x1 = 0.2) was 469.08 ± 2.4 kg/m3, the mass density (573.15 K, 24391 kPa, Fluid (supercritical or subcritical phases), x1 = 0.9) was 406.23 ± 2 kg/m3 and the mass density (573.15 K, 25613 kPa, Fluid (supercritical or subcritical phases), x1 = 0.8) was 417.11 ± 2.1 kg/m3. It also gave a mass density (573.15 K, 32252 kPa, Fluid (supercritical or subcritical phases), x1 = 0.2) of 508.13 ± 2.6 kg/m3 and a mass density (573.15 K, 39390 kPa, Fluid (supercritical or subcritical phases), x1 = 0.8) of 465.43 ± 2.4 kg/m3.
